Tests used:
ovalbumin (OVA) = assay: Anti-OVA antibody titers in Balb/c mice immunized with OVA in the presence or absence of PGE2; format: in vivo
Procedure: (§1) To generate antibody against ovalbumin (OVA), Balb/c mice were immunized with 25 ug of OVA emulsified in adjuvant. To test the effect of PGE2, the mice were injected with 1 nmol PGE2 intraperitoneally (i.p.) 3 hours prior to immunization, and again at 24 and 48 hours post immunization. For the control group, the mice were injected (i.p.) with an equal volume of PBS 3 hours prior to immunization. The mice were boosted with 25 ug OVA on Day 14 (i.p.) and Day 28 (subcutaneously). Anti-OVA titers were determined on Day 27 and Day 35.
(§2) To assess the effect of PGE2 on generating antibodies against difficult targets, a nominal immunogen (AgX) known to be difficult to raise an antibody response was used. Briefly, Balb/c mice were immunized following the same schedule outlined above with either 25 ug of OVA or AgX and titered on Day 27 following 2 i.p. injections. […] Therefore, PGE2 enhances immune responses in Balb/c mice and may be used to shorten immunization time lines.

nominal immunogen (AgX) = assay: Antibody titers in Balb/c mice against a nominal immunogen (AgX) in the presence or absence of PGE2; format: in vivo; details: following 2 injections, versus PBS
Procedure: as §1, §2
Given the difficult nature of this immunogen to generate antibodies against, this is a significant increase. Therefore, PGE2 can be used in Balb/c mice to enhance immune responses not only to strong immunogens, but also to difficult/nominal immunogens.

With `CCCCC[C@H](O)/C=C/[C@H]1[C@H](O)CC(=O)[C@@H]1C/C=C\CCCC(=O)O` [PGE2, Prostaglandin E2] the “effect on anti-OVA titers (in words)” value (ovalbumin (OVA); Table 1 experiment, Day 27 and Day 35) was “significantly enhanced anti-OVA titers”, the “effect on anti-OVA titers (in words)” value (ovalbumin (OVA); Table 2 experiment, following only 2 immunogen injections) was “enhanced anti-OVA titers” and the “increase of anti-AgX titers” value (nominal immunogen (AgX)) was 2-3 fold.

Source: patent publication US20100278875A1, “PROSTAGLANDIN E2 (PGE2) AS AN ADJUVANT IN MONOCLONAL ANTIBODY GENERATION” (priority 2006, published 2010)
